The text below walks through data of ChEMBL document CHEMBL1201862, “PubChem BioAssay data set” (2004).

Some test systems named below: 786-0; CAKI-1; HCC 2998; MCF7; MDA-MB-231; MDA-N; MOLT-4; NCI-H460; OVCAR-3; PC-3; RPMI-8226; SF-295; SK-MEL-2; SK-MEL-5; SK-OV-3; SN12C; SR; SW-620; UACC-62; NCI/ADR-RES.
Holding throughout (experiment): NCI-60 cell line screen, 48 h

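Exposure lasted 48 hours, with cells grown in 96-well plates and compounds tested at five concentrations. Abbreviation: GI50, concentration required for 50% inhibition of growth.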 Calls of active or inactive are those of the source. No stated cut-off is given here; in the data, active = GI50 up to about 1.1 µM and inactive = higher.

For `CCCCCCCCCCCCCC(=O)CBr`, the GI50 was 5.13 µM (inactive) with 786-0; 1.1 µM (active) in the assay on CAKI-1; 15.8 µM (inactive) in the assay on HCC 2998; 13.4 µM (inactive) in the assay with MCF7; 16.3 µM (inactive) in the assay with MDA-MB-231; 12.3 µM (inactive) in the assay with MDA-N. The GI50 in the assay with MOLT-4 is 0.764 µM (active); with NCI-H460 it was 18 µM (inactive); in the assay on OVCAR-3 it was 18.3 µM (inactive); in the assay on PC-3 it was 3.62 µM (inactive); in the assay with RPMI-8226 it was 1.47 µM (inactive); with SF-295, 15.4 µM (inactive). Besides, the GI50 in the assay with SK-MEL-2 was 11.5 µM (inactive); in the assay with SK-MEL-5 it was 12.1 µM (inactive); with SK-OV-3, 24 µM (inactive); in the assay on SN12C it was 16.6 µM (inactive); in the assay with SR, 1.04 µM (active); in the assay with SW-620 it was 12 µM (inactive). Also, the GI50 with UACC-62 is 9.79 µM (inactive).
Turning to `Cc1nc2ccccc2c(=O)n1NC(=O)Cc1ccccc1`, the GI50 in the assay on 786-0, in the assay on HCC 2998, in the assay on MCF7, in the assay with MDA-MB-231, in the assay with MDA-N and in the assay with MOLT-4 was > 100 µM (inactive) throughout. For the same compound, the GI50 with NCI-H460, in the assay with OVCAR-3, in the assay with PC-3, in the assay with RPMI-8226, in the assay with SF-295 and in the assay on SK-MEL-5 was > 100 µM (inactive) throughout. Besides, the GI50 with SK-OV-3 was > 100 µM (inactive); in the assay on SN12C, > 100 µM (inactive); in the assay on SR it was > 100 µM (inactive); with SW-620, > 100 µM (inactive); in the assay on UACC-62, 43.5 µM (inactive).
Turning to `O=[N+]([O-])c1cc([N+](=O)[O-])c(Nn2c3ccccc3c3ccccc32)c([N+](=O)[O-])c1`, the GI50 with 786-0 is 2.74 µM (inactive); in the assay on HCC 2998 it was 2.74 µM (inactive); with MCF7, 1.25 µM (inactive); in the assay on MDA-N, 2.38 µM (inactive); in the assay with MOLT-4 it was 0.69 µM (active); in the assay with NCI-H460, 1.86 µM (inactive). Further, the GI50 in the assay on NCI/ADR-RES is 3.24 µM (inactive); in the assay on PC-3, 1.25 µM (inactive); in the assay with RPMI-8226, 0.65 µM (active); in the assay on SF-295, 1.25 µM (inactive); with SK-MEL-5, 1.94 µM (inactive); in the assay on SN12C, 1.79 µM (inactive). The GI50 in the assay on SR is 0.94 µM (active); in the assay with SW-620, 3.02 µM (inactive); in the assay on UACC-62 it was 0.933 µM (active).
Turning to `CCOP(=O)(/C=C\n1ccc(N)nc1=O)OCC`, the GI50 in the assay on 786-0, in the assay on CAKI-1, in the assay on MCF7, in the assay with MDA-MB-231, in the assay with MDA-N and in the assay with MOLT-4 was > 100 µM (inactive) each time. Also, the GI50 in the assay with NCI-H460, in the assay on NCI/ADR-RES, in the assay with OVCAR-3, in the assay with PC-3, with RPMI-8226 and with SF-295 was > 100 µM (inactive) throughout. The GI50 with SK-MEL-2, in the assay on SK-MEL-5, with SK-OV-3, in the assay on SN12C, in the assay with SW-620 and in the assay with UACC-62 was > 100 µM (inactive) throughout.
Turning to `CC(C)=C=CC(C)(C)NS(=O)(=O)NC(C)(C)C=C=C(C)C`, the GI50 was > 100 µM (inactive) in the assay on 786-0; > 100 µM (inactive) in the assay with CAKI-1; 25.5 µM (inactive) in the assay on HCC 2998; > 100 µM (inactive) in the assay with MCF7; > 100 µM (inactive) in the assay on MDA-N; 80.9 µM (inactive) with NCI-H460. Besides, the GI50 in the assay on NCI/ADR-RES is > 100 µM (inactive); with OVCAR-3, 71.3 µM (inactive); in the assay with PC-3 it was 81.1 µM (inactive); in the assay on SF-295, > 100 µM (inactive); in the assay on SK-MEL-2, > 100 µM (inactive); in the assay with SK-MEL-5, > 100 µM (inactive). Besides, the GI50 is > 100 µM (inactive) in the assay with SK-OV-3; > 100 µM (inactive) with SN12C; 18.4 µM (inactive) in the assay with SR; > 100 µM (inactive) in the assay on SW-620; > 100 µM (inactive) in the assay with UACC-62.
Consider `C[C@H](c1ccccc1)N1C(=O)[C@@H](OCc2ccccc2)[C@H]1[C@H](COC(=O)COCc1ccccc1)OCc1ccccc1`, for which the GI50 in the assay on 786-0 was > 100 µM (inactive); with MCF7 it was > 100 µM (inactive); in the assay on MDA-MB-231 it was > 100 µM (inactive); in the assay with MDA-N, > 100 µM (inactive); in the assay on MOLT-4, 67.5 µM (inactive); with OVCAR-3, > 100 µM (inactive). Further, the GI50 in the assay on PC-3 was 77.4 µM (inactive); in the assay with RPMI-8226 it was 27.9 µM (inactive); in the assay with SF-295 it was > 100 µM (inactive); in the assay on SK-MEL-2, > 100 µM (inactive); in the assay with SK-MEL-5, 58.7 µM (inactive); in the assay with SK-OV-3, > 100 µM (inactive). For the same compound, the GI50 with SN12C, with SR, in the assay with SW-620 and in the assay on UACC-62 was > 100 µM (inactive) throughout.
`CSc1nc(C#N)c(/N=C\N(C)C)n1C`: the GI50 with 786-0, with CAKI-1, in the assay with MDA-MB-231, with MDA-N, in the assay with MOLT-4 and with NCI-H460 was > 100 µM (inactive) throughout. The GI50 with NCI/ADR-RES, with OVCAR-3, in the assay with PC-3, in the assay with RPMI-8226, in the assay with SF-295 and with SK-MEL-2 was > 100 µM (inactive) throughout. Also, the GI50 in the assay with SK-MEL-5, with SK-OV-3, with SN12C, with SR, in the assay with SW-620 and with UACC-62 was > 100 µM (inactive) each time.
In the case of `COc1cccc(C2c3cc4c(cc3OC3COC(=O)C32)OCO4)c1OC` (stereo not drawn), the GI50 in the assay on 786-0 was > 100 µM (inactive); in the assay on CAKI-1, 37.6 µM (inactive); in the assay with HCC 2998, > 100 µM (inactive); with MCF7 it was 83 µM (inactive); in the assay with MDA-MB-231, > 100 µM (inactive); with MDA-N, 3.93 µM (inactive). The GI50 in the assay on MOLT-4, in the assay on NCI-H460, with NCI/ADR-RES, with OVCAR-3, in the assay with PC-3 and in the assay with SF-295 was > 100 µM (inactive) in each case. Moreover, the GI50 with SK-MEL-2 is 49.4 µM (inactive); in the assay with SK-MEL-5, > 100 µM (inactive); with SK-OV-3 it was 57.8 µM (inactive); in the assay on SN12C, > 100 µM (inactive); in the assay on SW-620 it was > 100 µM (inactive); with UACC-62, 68.2 µM (inactive).
Regarding `C/C(=C\COc1ccc2ccc(=O)oc2c1)C1=CC(=O)C(C)(C)O1` [GEIPARVARIN], the GI50 with 786-0 is 3.74 µM (inactive); in the assay on CAKI-1 it was 4.83 µM (inactive); in the assay with HCC 2998, 3.94 µM (inactive); with MDA-MB-231 it was 5.18 µM (inactive); in the assay with MDA-N, 3.28 µM (inactive); in the assay with MOLT-4, 4.14 µM (inactive). For the same compound, the GI50 in the assay with NCI/ADR-RES was 2.64 µM (inactive); with OVCAR-3 it was 3.7 µM (inactive); in the assay with PC-3, 6.58 µM (inactive); in the assay on RPMI-8226, 2.04 µM (inactive); in the assay with SF-295 it was 2.43 µM (inactive); with SK-MEL-2, 3.66 µM (inactive). The GI50 was 3.45 µM (inactive) in the assay on SK-MEL-5; 7.87 µM (inactive) in the assay on SK-OV-3; 3.94 µM (inactive) in the assay with SN12C; 1.68 µM (inactive) with SR; 3.43 µM (inactive) in the assay on SW-620; 3.94 µM (inactive) in the assay on UACC-62.
Turning to `CC1C(O)Oc2cc3c(cc2C1c1ccccc1O)OCO3` (stereo not drawn), the GI50 in the assay with 786-0 is 39.4 µM (inactive); in the assay on CAKI-1 it was 29.2 µM (inactive); with HCC 2998 it was 38.5 µM (inactive); in the assay with MCF7, 38.1 µM (inactive); with MDA-MB-231, 34.6 µM (inactive); in the assay with MDA-N it was 30.5 µM (inactive). Also, the GI50 with MOLT-4 is 19.3 µM (inactive); with NCI-H460, 23.4 µM (inactive); in the assay on OVCAR-3, 27.8 µM (inactive); in the assay on PC-3, 19.5 µM (inactive); with RPMI-8226 it was 16.7 µM (inactive); with SF-295 it was 21.2 µM (inactive). Moreover, the GI50 was 25.9 µM (inactive) with SK-MEL-2; 33.3 µM (inactive) with SK-MEL-5; 39.9 µM (inactive) in the assay with SK-OV-3; 39.2 µM (inactive) with SN12C; 4.65 µM (inactive) with SR; 39.1 µM (inactive) in the assay on SW-620. Further, the GI50 in the assay on UACC-62 was 29.5 µM (inactive).
`CC(=O)OCC1=C(C)C(OC(=O)C(OC(C)=O)[C@@H](NC(=O)c2ccccc2)c2ccccc2)CCC1(C)C` (stereo partly drawn): the GI50 in the assay on 786-0, in the assay with CAKI-1, in the assay with HCC 2998, with MCF7, in the assay with MDA-MB-231 and in the assay with MDA-N was > 100 µM (inactive) throughout. In addition, the GI50 in the assay on MOLT-4, in the assay with NCI-H460, in the assay on NCI/ADR-RES, in the assay on OVCAR-3, in the assay on RPMI-8226 and with SF-295 was > 100 µM (inactive) each time. The GI50 with SK-MEL-5, in the assay on SK-OV-3, in the assay with SN12C, with SR, in the assay on SW-620 and in the assay on UACC-62 was > 100 µM (inactive) throughout.
